One experiment has as its target T1, NAMPT (Homo sapiens, UniProt P43490).
T1 construct: His tag; host or cells: E. coli
The experiment can be described thus: Biochemical inhibition assay: NAMPT enzymatic reaction, NMN quantified by mass spectrometry. The note with it: read-out: Biochem IC50. The method, boiled down: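 Inhibition of E. coli-expressed His-tagged human NAMPT, measured as NMN formation by mass spectrometry after a 30 min room-temperature reaction containing 1 μM NAM, 100 μM PRPP and 2.5 mM ATP.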

Another experiment concerns A2780 cells. The experiment can be described thus: In-vitro cell proliferation assay (SRB), A2780 cells. The note with it: A2780 cells, 72 hours, read-out: A2780 IC50. The format is cell-based. Put shortly: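 Viable cells measured by SRB staining after 6% TCA fixation, absorbance 570 nm. Media-only background subtracted; % inhibition derived at two compound concentrations.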

pIC50: −log10 of the molar value. Like-named read-outs stand apart in the source and are kept apart here.

This is an account of results in patent US12336981B2, “Compounds and compositions for the inhibition of NAMPT” (Valo Health, Inc., priority 2010, dated 2025).

Broadly, the pIC50 is the negative decadic logarithm of the IC50, by convention in mol/L.

T1 sequence (P43490 whole entry): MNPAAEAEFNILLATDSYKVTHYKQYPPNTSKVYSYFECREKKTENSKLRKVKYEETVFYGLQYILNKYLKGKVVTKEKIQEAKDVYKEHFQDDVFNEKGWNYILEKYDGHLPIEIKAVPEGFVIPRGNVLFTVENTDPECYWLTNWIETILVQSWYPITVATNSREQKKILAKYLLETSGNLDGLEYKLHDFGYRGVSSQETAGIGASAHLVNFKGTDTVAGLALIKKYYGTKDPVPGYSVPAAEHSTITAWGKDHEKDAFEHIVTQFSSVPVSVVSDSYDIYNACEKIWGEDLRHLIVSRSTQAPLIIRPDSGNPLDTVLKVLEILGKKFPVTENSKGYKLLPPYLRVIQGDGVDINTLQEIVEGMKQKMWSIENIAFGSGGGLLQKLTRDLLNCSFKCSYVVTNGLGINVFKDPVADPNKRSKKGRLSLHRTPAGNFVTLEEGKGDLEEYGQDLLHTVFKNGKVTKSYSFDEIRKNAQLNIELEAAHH

In the case of `O=C(NCc1ccc(S(=O)(=O)c2cc(F)ccc2F)cc1)c1cnc2[nH]ncc2c1`, the negative-log IC50 (pIC50) is 6.00 to 7.00 on NAMPT (NAMPT enzymatic reaction) and 6.41 in the experiment on A2780 cells (Homo sapiens, A2780, 72 h, SRB).

Regarding `O=C(NCc1ccc(S(=O)(=O)c2cc(Cl)cc(CO)c2)cc1)c1cc2ccncc2s1`, the negative logarithm of the IC50 (pIC50) at NAMPT was 8.48; in the experiment on A2780 cells (SRB), 9.10.

Take `CCOc1ccc(S(=O)(=O)c2ccc(CNC(=O)c3cnc4[nH]ncc4c3)cc2)cc1`: the pIC50 at NAMPT (NAMPT enzymatic reaction) is 7.82; in the experiment with A2780 cells (Homo sapiens, A2780, 72 h, SRB), 8.08.

Regarding `CCOc1ccc(S(=O)(=O)c2ccc(CNC(=O)c3ccc4nccn4c3)cc2)cc1`, the pIC50 on NAMPT (NAMPT enzymatic reaction) is 8.35; with A2780 cells (Homo sapiens, A2780, 72 h, SRB) it was 8.54.

Regarding `CCOc1ccc(S(=O)(=O)c2ccc(CNC(=O)c3cnc4nccn4c3)cc2)cc1`, the pIC50 on NAMPT (NAMPT enzymatic reaction) was 8.70; with A2780 cells (Homo sapiens, A2780, 72 h, SRB), 8.21.

Regarding `CCOc1ccc(S(=O)(=O)c2ccc(CNC(=O)c3cc4ccncc4s3)cc2)cc1`, the pIC50 at NAMPT (NAMPT enzymatic reaction) is 8.68; in the experiment on A2780 cells (Homo sapiens, A2780, 72 h, SRB), 8.40.

Consider `CCc1ccc(S(=O)(=O)c2ccc(CNC(=O)c3cnc4nccn4c3)cc2)cc1`, for which the pIC50 is 8.92 at NAMPT (NAMPT enzymatic reaction) and 8.21 in the experiment on A2780 cells (Homo sapiens, A2780, 72 h, SRB).

Regarding `Cc1cc(S(=O)(=O)c2ccc(CNC(=O)c3cc4ccncc4o3)cc2)c(C)cc1F`, the pIC50 was 7.75 on NAMPT (NAMPT enzymatic reaction) and 7.62 in the experiment with A2780 cells (Homo sapiens, A2780, 72 h, SRB).

As for `Cc1cc(S(=O)(=O)c2ccc(CNC(=O)c3cc4cnccc4[nH]3)cc2)c(C)cc1F`, the pIC50 on NAMPT (NAMPT enzymatic reaction) was 7.29; with A2780 cells (Homo sapiens, A2780, 72 h, SRB) it was 7.89.

Regarding `O=CNc1ccc(C(=O)NCc2ccc(S(=O)(=O)c3cc(F)cc(F)c3)cc2)cn1` [5-N-({4-[(3,5-difluorobenzene)sulfonyl]phenyl}methyl)pyridine-2,5-diamido], the negative-log IC50 (pIC50) at NAMPT (NAMPT enzymatic reaction) was 5.00 to 6.00; in the experiment with A2780 cells (Homo sapiens, A2780, 72 h, SRB), 6.18.

For the compound `Cn1ncc2c(S(=O)(=O)c3ccc(CNC(=O)c4cc5cc(O)ccc5[nH]4)cc3)cccc21` [5-hydroxy-N-{[4-(1-methyl-1H-indazole-4-sulfonyl)phenyl]methyl}-1H-indole-2-carboxamide], the negative logarithm of the IC50 (pIC50) was 6.00 to 7.00 on NAMPT (NAMPT enzymatic reaction) and less than 6.00 in the experiment with A2780 cells (Homo sapiens, A2780, 72 h, SRB).

For `Nc1ccc(C(=O)NCc2ccc(S(=O)(=O)c3cc(F)cc(F)c3)cc2)cn1` [6-amino-N-({4-[(3,5-difluorobenzene)sulfonyl]phenyl}methyl)pyridine-3-carboxamide], the pIC50 was 7.85 at NAMPT (NAMPT enzymatic reaction) and 6.56 in the experiment with A2780 cells (Homo sapiens, A2780, 72 h, SRB).

With `COc1ccc(F)cc1NS(=O)(=O)c1ccc(CN/C(=N\C#N)Nc2ccncc2)cc1` [(E)-2-cyano-3-({4-[(5-fluoro-2-methoxyphenyl)sulfamoyl]phenyl}methyl)-1-(pyridin-4-yl)guanidine], the pIC50 was 8.96 on NAMPT (NAMPT enzymatic reaction) and 8.52 in the experiment with A2780 cells (Homo sapiens, A2780, 72 h, SRB).

On to `O=C(NCc1ccc2ncsc2c1)c1ccc(S(=O)(=O)c2cccc(Cl)c2)cc1` [N-(1,3-benzothiazol-6-ylmethyl)-4-[(3-chlorobenzene)sulfonyl]benzamide], for which the pIC50 on NAMPT (NAMPT enzymatic assay) was 8.00; in the experiment on A2780 cells (Homo sapiens, A2780, 72 h, SRB), less than 5.00.

Turning to `O=C(NCc1ccc(S(=O)(=O)c2ccccc2)cc1)c1ccc2scnc2c1` [N-(4-(phenylsulfonyl)benzyl)benzo[d]thiazole-5-carboxamide], the pIC50 on NAMPT (NAMPT enzymatic reaction) is 7.33; with A2780 cells (Homo sapiens, A2780, 72 h, SRB assay), 5.41.

With `O=C(NCc1ccc(S(=O)(=O)c2cnn(-c3cccc(Cl)c3)c2)cc1)c1cnc2[nH]ncc2c1` [N-({4-[1-(3-chlorophenyl)-1H-pyrazole-4-sulfonyl]phenyl}methyl)-1H-pyrazolo[3,4-b]pyridine-5-carboxamide], the pIC50 at NAMPT (NAMPT enzymatic assay) is 7.55; with A2780 cells (Homo sapiens, A2780, 72 h, SRB), 7.25.

Turning to `O=C(NCc1ccc(S(=O)(=O)c2cnn(-c3cccc(Cl)c3)c2)cc1)c1cc2cnccc2[nH]1` [N-({4-[1-(3-chlorophenyl)-1H-pyrazole-4-sulfonyl]phenyl}methyl)-1H-pyrrolo[3,2-c]pyridine-2-carboxamide], the negative logarithm of the IC50 (pIC50) at NAMPT (NAMPT enzymatic assay) was 7.77; in the experiment on A2780 cells (Homo sapiens, A2780, 72 h, SRB) it was 7.88.

As to `O=C(NCc1ccc(S(=O)(=O)c2cnn(-c3cccc(Cl)c3)c2)cc1)c1cc2ccncc2o1` [N-({4-[1-(3-chlorophenyl)-1H-pyrazole-4-sulfonyl]phenyl}methyl)furo[2,3-c]pyridine-2-carboxamide], the negative logarithm of the IC50 (pIC50) on NAMPT (NAMPT enzymatic assay) was 7.94; with A2780 cells (Homo sapiens, A2780, 72 h, SRB), 7.85.

As for `O=C(NCc1ccc(S(=O)(=O)c2cnn(-c3cccc(Cl)c3)c2)cc1)c1ccc2nccn2c1` [N-({4-[1-(3-chlorophenyl)-1H-pyrazole-4-sulfonyl]phenyl}methyl)imidazo[1,2-a]pyridine-6-carboxamide], the pIC50 at NAMPT (NAMPT enzymatic assay) is 7.85; with A2780 cells (Homo sapiens, A2780, 72 h, SRB), 8.19.

In the case of `O=C(NCc1ccc(S(=O)(=O)c2cnn(-c3cccc(Cl)c3)c2)cc1)c1cnc2nccn2c1` [N-({4-[1-(3-chlorophenyl)-1H-pyrazole-4-sulfonyl]phenyl}methyl)imidazo[1,2-a]pyrimidine-6-carboxamide], the negative-log IC50 (pIC50) is 8.66 on NAMPT (NAMPT enzymatic assay) and 7.94 in the experiment on A2780 cells (Homo sapiens, A2780, 72 h, SRB).

Consider `O=C(NCc1ccc(S(=O)(=O)c2cnn(-c3cccc(Cl)c3)c2)cc1)c1cc2ccncc2s1` [N-({4-[1-(3-chlorophenyl)-1H-pyrazole-4-sulfonyl]phenyl}methyl)thieno[2,3-c]pyridine-2-carboxamide], for which the pIC50 was 8.39 at NAMPT (NAMPT enzymatic assay) and 7.86 in the experiment with A2780 cells (Homo sapiens, A2780, 72 h, SRB).

Take `O=C(NCc1ccc(S(=O)(=O)c2cnn(-c3ccc(F)cc3)c2)cc1)c1cc2cnccc2[nH]1` [N-({4-[1-(4-fluorophenyl)-1H-pyrazole-4-sulfonyl]phenyl}methyl)-1H-pyrrolo[3,2-c]pyridine-2-carboxamide]: the pIC50 was 7.74 on NAMPT (NAMPT enzymatic assay) and 8.18 in the experiment with A2780 cells (Homo sapiens, A2780, 72 h, SRB).

For the compound `O=C(NCc1ccc(S(=O)(=O)c2cnn(-c3ccc(F)cc3)c2)cc1)c1cc2ccncc2o1` [N-({4-[1-(4-fluorophenyl)-1H-pyrazole-4-sulfonyl]phenyl}methyl)furo[2,3-c]pyridine-2-carboxamide], the negative logarithm of the IC50 (pIC50) is 8.16 at NAMPT (NAMPT enzymatic assay) and 8.13 with A2780 cells (Homo sapiens, A2780, 72 h, SRB).

Take `O=C(NCc1ccc(S(=O)(=O)c2cnn(-c3ccc(F)cc3)c2)cc1)c1cc2ccncc2s1` [N-({4-[1-(4-fluorophenyl)-1H-pyrazole-4-sulfonyl]phenyl}methyl)thieno[2,3-c]pyridine-2-carboxamide]: the negative-log IC50 (pIC50) at NAMPT (NAMPT enzymatic assay) is 8.35; with A2780 cells (Homo sapiens, A2780, 72 h, SRB), 8.21.

In the case of `CC(C)n1cc(S(=O)(=O)c2ccc(CNC(=O)c3ccc4nccn4c3)cc2)cn1` [N-({4-[1-(propan-2-yl)-1H-pyrazole-4-sulfonyl]phenyl}methyl)imidazo[1,2-a]pyridine-6-carboxamide], the pIC50 is 8.10 at NAMPT (NAMPT enzymatic assay) and 8.57 in the experiment with A2780 cells (Homo sapiens, A2780, 72 h, SRB).

For `Cn1cc(S(=O)(=O)c2ccc(CNC(=O)c3ccc4nccn4c3)cc2)c(C(F)(F)F)n1` [N-({4-[1-methyl-3-(trifluoromethyl)-1H-pyrazole-4-sulfonyl]phenyl}methyl)imidazo[1,2-a]pyridine-6-carboxamide], the pIC50 at NAMPT (NAMPT enzymatic assay) was 7.52; in the experiment with A2780 cells (Homo sapiens, A2780, 72 h, SRB), 7.56.

Turning to `Cn1ncc(S(=O)(=O)c2ccc(CNC(=O)c3cnc4[nH]ncc4c3)cc2)c1C(F)(F)F` [N-({4-[1-methyl-5-(trifluoromethyl)-1H-pyrazole-4-sulfonyl]phenyl}methyl)-1H-pyrazolo[3,4-b]pyridine-5-carboxamide], the negative logarithm of the IC50 (pIC50) on NAMPT (NAMPT enzymatic assay) was 7.27; with A2780 cells (Homo sapiens, A2780, 72 h, SRB) it was 7.36.

Take `Cn1ncc(S(=O)(=O)c2ccc(CNC(=O)c3cnc4nccn4c3)cc2)c1C(F)(F)F` [N-({4-[1-methyl-5-(trifluoromethyl)-1H-pyrazole-4-sulfonyl]phenyl}methyl)imidazo[1,2-a]pyrimidine-6-carboxamide]: the negative-log IC50 (pIC50) is 8.40 at NAMPT (NAMPT enzymatic assay) and 7.17 with A2780 cells (Homo sapiens, A2780, 72 h, SRB).

In the case of `O=C(NCc1ccc(S(=O)(=O)c2csc(-c3cccc(F)c3)n2)cc1)c1cnc2[nH]ncc2c1` [N-({4-[2-(3-fluorophenyl)-1,3-thiazole-4-sulfonyl]phenyl}methyl)-1H-pyrazolo[3,4-b]pyridine-5-carboxamide], the pIC50 on NAMPT (NAMPT enzymatic assay) is 7.57; with A2780 cells (Homo sapiens, A2780, 72 h, SRB), 7.22.

As to `O=C(NCc1ccc(S(=O)(=O)c2csc(-c3cccc(F)c3)n2)cc1)c1cc2cnccc2[nH]1` [N-({4-[2-(3-fluorophenyl)-1,3-thiazole-4-sulfonyl]phenyl}methyl)-1H-pyrrolo[3,2-c]pyridine-2-carboxamide], the negative-log IC50 (pIC50) at NAMPT (NAMPT enzymatic assay) was 7.72; in the experiment on A2780 cells (Homo sapiens, A2780, 72 h, SRB) it was 7.63.

On to `O=C(NCc1ccc(S(=O)(=O)c2csc(-c3cccc(F)c3)n2)cc1)c1cc2ccncc2o1` [N-({4-[2-(3-fluorophenyl)-1,3-thiazole-4-sulfonyl]phenyl}methyl)furo[2,3-c]pyridine-2-carboxamide], for which the pIC50 at NAMPT (NAMPT enzymatic assay) was 7.92; in the experiment on A2780 cells (Homo sapiens, A2780, 72 h, SRB) it was 7.30.

Consider `O=C(NCc1ccc(S(=O)(=O)c2csc(-c3cccc(F)c3)n2)cc1)c1ccc2nccn2c1` [N-({4-[2-(3-fluorophenyl)-1,3-thiazole-4-sulfonyl]phenyl}methyl)imidazo[1,2-a]pyridine-6-carboxamide], for which the pIC50 on NAMPT (NAMPT enzymatic assay) was 7.64; in the experiment with A2780 cells (Homo sapiens, A2780, 72 h, SRB), 7.89.

On to `O=C(NCc1ccc(S(=O)(=O)c2csc(-c3cccc(F)c3)n2)cc1)c1cnc2nccn2c1` [N-({4-[2-(3-fluorophenyl)-1,3-thiazole-4-sulfonyl]phenyl}methyl)imidazo[1,2-a]pyrimidine-6-carboxamide], for which the pIC50 was 9.00 on NAMPT (NAMPT enzymatic assay) and 8.16 in the experiment with A2780 cells (Homo sapiens, A2780, 72 h, SRB).

Turning to `O=C(NCc1ccc(S(=O)(=O)c2csc(-c3cccc(F)c3)n2)cc1)c1cc2ccncc2s1` [N-({4-[2-(3-fluorophenyl)-1,3-thiazole-4-sulfonyl]phenyl}methyl)thieno[2,3-c]pyridine-2-carboxamide], the pIC50 at NAMPT (NAMPT enzymatic assay) was 8.18; in the experiment on A2780 cells (Homo sapiens, A2780, 72 h, SRB) it was 7.61.

In the case of `O=C(NCc1ccc(CCS(=O)(=O)c2ccccc2)cc1)c1cc2cnccc2[nH]1` [N-({4-[2-(benzenesulfonyl)ethyl]phenyl}methyl)-1H-pyrrolo[3,2-c]pyridine-2-carboxamide], the negative-log IC50 (pIC50) on NAMPT (NAMPT enzymatic assay) is 7.64; with A2780 cells (Homo sapiens, A2780, 72 h, SRB), 6.78.
